*1 amine or outer side, *2 acyl side, *3 side chain or, on linkers, in order; H or OH if unused. Where a SMILES comes first, the peptide text is derived from it. [ ]: non-standard residue; d: D form. X2 = [N-]=[N+]=CC(=O)CC[C@@H](N[*:1])C(=O)[*:2]; DON = [N-]=[N+]=CC(=O)CC[C@H](N)C(=O)O
Assays:
human TG2 [1] = target: T1, human TG2 (Homo sapiens, UniProt P21980); assay: TG2 inhibition kinetics by the method of Hausch et al.; assay type: biochemical; parameters: ki/KI: unit not given here
T1 sequence (P21980 1-687): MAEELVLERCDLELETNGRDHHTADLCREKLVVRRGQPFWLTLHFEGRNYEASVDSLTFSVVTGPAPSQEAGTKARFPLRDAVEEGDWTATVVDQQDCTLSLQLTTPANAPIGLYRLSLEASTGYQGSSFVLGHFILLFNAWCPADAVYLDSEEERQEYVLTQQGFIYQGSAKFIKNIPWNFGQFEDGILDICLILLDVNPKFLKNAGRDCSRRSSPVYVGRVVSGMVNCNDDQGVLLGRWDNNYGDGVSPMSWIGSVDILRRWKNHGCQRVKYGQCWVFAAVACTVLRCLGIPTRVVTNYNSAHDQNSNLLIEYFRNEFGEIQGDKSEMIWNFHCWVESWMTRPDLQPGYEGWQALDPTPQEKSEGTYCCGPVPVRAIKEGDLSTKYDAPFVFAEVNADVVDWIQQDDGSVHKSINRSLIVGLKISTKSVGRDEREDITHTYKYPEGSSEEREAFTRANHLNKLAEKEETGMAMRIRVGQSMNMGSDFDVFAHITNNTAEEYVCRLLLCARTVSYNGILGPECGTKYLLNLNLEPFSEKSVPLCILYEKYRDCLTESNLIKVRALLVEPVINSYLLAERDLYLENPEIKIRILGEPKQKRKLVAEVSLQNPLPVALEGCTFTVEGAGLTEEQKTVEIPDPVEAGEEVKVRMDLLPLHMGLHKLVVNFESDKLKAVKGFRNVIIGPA
Source text: Earlier disclosures had reported the synthesis and evaluation of a promising peptidic inhibitor of human TG2, (SEQ ID NO:1) Ac-Pro-Gln-Pro-DON-Leu-Pro-Phe-NH2. We now disclose a truncated analog that is easier to synthesize and has greater activity.
Characterization: (SEQ ID NO:3) Ac-Pro-DON-Leu-Pro-Phe-NH2 was characterized by the method of Hausch et al. (Hausch et al., Chem. Biol. (2003) 10, 225-231).

tumor associated TG2 = target: T2, tumor associated TG2 (Mus musculus, UniProt P21981); assay: Intracranial DBT tumor associated TG2 activity after dosing; assay type: in vivo, mice
T2 construct: from tissue; host or cells: intracranial DBT glioblastoma tumours from dosed mice
T2 sequence (P21981 1-686): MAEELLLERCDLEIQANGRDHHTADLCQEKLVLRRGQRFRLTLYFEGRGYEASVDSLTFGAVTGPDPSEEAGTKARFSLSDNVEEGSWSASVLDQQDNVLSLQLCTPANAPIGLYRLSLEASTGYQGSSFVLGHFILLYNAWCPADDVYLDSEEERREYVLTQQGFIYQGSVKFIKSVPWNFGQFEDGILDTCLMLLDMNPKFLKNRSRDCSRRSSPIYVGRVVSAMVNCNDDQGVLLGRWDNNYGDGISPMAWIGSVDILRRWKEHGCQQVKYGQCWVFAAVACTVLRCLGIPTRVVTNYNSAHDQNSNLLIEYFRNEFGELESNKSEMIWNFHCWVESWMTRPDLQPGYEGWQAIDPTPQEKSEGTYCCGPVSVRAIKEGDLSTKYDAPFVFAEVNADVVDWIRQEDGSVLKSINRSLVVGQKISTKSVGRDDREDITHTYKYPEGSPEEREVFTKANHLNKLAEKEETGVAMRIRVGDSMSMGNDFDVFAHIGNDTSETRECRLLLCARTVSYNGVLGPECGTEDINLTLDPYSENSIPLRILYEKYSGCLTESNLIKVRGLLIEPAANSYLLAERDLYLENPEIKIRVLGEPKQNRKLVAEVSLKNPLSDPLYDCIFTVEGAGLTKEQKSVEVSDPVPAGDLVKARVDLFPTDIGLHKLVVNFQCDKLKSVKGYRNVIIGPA
Description: To test whether therapeutic doses of KCC009 can modulate TG2 activity associated with intracranial glioblastomas, DBT tumors were injected intracranially in mice. As judged by MRI, the mice consistently established intracranial tumors after 7-10 days following injections, which, if untreated, caused death by 2-3 weeks. In an initial dose-finding experiment, cohorts of mice were administered 4 daily doses of vehicle or KCC009 (12.5 mg/kg, 25 mg/kg and 50 mg/kg) starting on day 11 after intra-cranial injections. Twenty-four hours later, the mice were sacrificed and tumors analyzed. […] Based on these findings a dose of 35 mg/kg was used for subsequent experiments in mice harboring intracranial DBT tumors.
As summarized in Table 4, KCC009 treatment led to significant suppression of TG2 activity after 15 min, whereas enzyme activity recovers fully by 24 h. Both uninhibited and inhibited activity levels are consistent with similar measurements in the small intestinal mucosa (data not shown).

[2] = target: T3, recombinant human tissue transglutaminase (Homo sapiens, UniProt P21980); assay: tTGase inhibition assay, residual activity by glutamate dehydrogenase coupled assay; assay type: biochemical; conditions: dihydroisoxazoles, Table 1
T3 construct: made in house
T3 sequence (P21980 1-687): T1 sequence (P21980 1-687)

[3] = target: T4, bovine epidermal transglutaminase (Bos taurus, UniProt A6QP57); conditions: cited from earlier work
T4 sequence (A6QP57 1-691): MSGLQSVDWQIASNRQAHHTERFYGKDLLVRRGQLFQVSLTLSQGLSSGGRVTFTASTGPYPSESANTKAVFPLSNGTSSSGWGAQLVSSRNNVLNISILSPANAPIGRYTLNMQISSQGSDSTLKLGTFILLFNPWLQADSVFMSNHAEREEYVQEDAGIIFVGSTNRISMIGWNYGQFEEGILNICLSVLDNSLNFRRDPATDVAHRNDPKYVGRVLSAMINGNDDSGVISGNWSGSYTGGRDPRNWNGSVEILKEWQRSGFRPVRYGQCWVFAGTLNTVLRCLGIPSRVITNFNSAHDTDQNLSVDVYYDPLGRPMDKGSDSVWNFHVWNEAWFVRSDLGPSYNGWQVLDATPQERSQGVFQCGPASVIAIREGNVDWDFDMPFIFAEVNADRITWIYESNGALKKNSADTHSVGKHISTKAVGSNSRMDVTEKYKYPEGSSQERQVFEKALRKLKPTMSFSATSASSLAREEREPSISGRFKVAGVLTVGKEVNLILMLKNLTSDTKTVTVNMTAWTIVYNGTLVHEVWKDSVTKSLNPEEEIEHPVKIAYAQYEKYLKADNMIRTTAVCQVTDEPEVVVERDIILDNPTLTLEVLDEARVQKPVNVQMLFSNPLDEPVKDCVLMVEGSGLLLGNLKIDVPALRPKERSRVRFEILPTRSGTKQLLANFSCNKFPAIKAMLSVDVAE

human TG2 [4] = target: T1, human TG2; conditions: cited from earlier work
[5] = target: T5, human TG2 (tissue transglutaminase, transglutaminase 2) (human, UniProt P21980 1-687, limits assumed); assay: TG2 enzyme inactivation kinetics by the method of Hausch et al.
T5 construct: also called tTGase; tTG
T5 sequence (looked up): T1 sequence (P21980 1-687)

CC(=O)N1CCC[C@H]1C(=O)N[C@H](CCC(=O)C=[N+]=[N-])C(=O)N[C@@H](CC(C)C)C(=O)N1CCC[C@H]1C(=O)N[C@@H](Cc1ccccc1)C(N)=O [Ac-Pro-DON-Leu-Pro-Phe-NH2] (Ac-P[X2]LPF-NH2)
ki (human TG2 [1]): 0.5 min⁻¹ | ki/KI (human TG2 [1]): 8.3

O=NN(CCCl)C(=O)NCCCl [BCNU, reference compound]
TG2 activity-BCNU alone (tumor associated TG2; 15 min after last of four daily doses): 2.1 ± 0.2 (n = 4) nmol/h/mg protein | TG2 activity-BCNU alone (tumor associated TG2; 24 h after last of four daily doses): 2.2 ± 0.3 (n = 2) nmol/h/mg protein

O=C(N[C@@H](Cc1ccccc1)C(=O)NCC1CC(Br)=NO1)OCc1ccccc1 (stereo partly drawn) [Compound 49, {(S)-1-[(3-Bromo-4,5-dihydro-isoxazol-5-ylmethyl)-carbamoyl]-2-phenyl-ethyl}-carbamic acid benzyl ester]
kinh [2]: 1.4 min⁻¹ | inhibition of bovine epidermal transglutaminase [3]: is an inhibitor

CC(=O)CSc1n(C)c(C)c(C)[n+]1C.[Cl-] [L682777]
inhibition of human TG2 (human TG2 [4]): inhibits human TG2

B1: Ac-Pro-DON-Leu-Pro-Phe-NH2 (DON=6-diazo-5-oxo-norleucine) (peptide)
peptide: Ac-P[DON]LPF-NH2
SMILES: CC(=O)N1CCC[C@H]1C(=O)N[C@@H](CCC(=O)C=[N+]=[N-])C(=O)N[C@@H](CC(C)C)C(=O)N1CCC[C@H]1C(=O)N[C@@H](Cc1ccccc1)C(N)=O
notes: Position 2 is the non-natural residue DON; also called truncated analog of Ac-Pro-Gln-Pro-DON-Leu-Pro-Phe-NH2
Ki [5]: 60 nM | ki (inactivation rate constant) [5]: 0.5 min⁻¹
